SMILES strings stand for the structures.

The test system of one data set is sea lice. Put plainly: Oral or bath treatment in freshwater before sea transfer, sea lice counts after natural infection (Example 5). Type of data set: in vivo, sea trout (Salmo trutta). Particulars: oral 4 mg per kg daily for 5 days or bath 5 ppm for 30 minutes. Here is the method:
The treatment dosage was 9 mg hexaflumuron per kg fish per day for 10 days. This is indicated by "Groups/Timepoints" in the figure; • Figure 2 relates to the trial in Example 2 that was carried out on Atlantic salmon (Salmo salar). […] The treatment dosage varied between 3 - 9 mg hexaflumuron and 9- 12 mg fluazuron per kg fish per day for 7 days. This is indicated by "Groups/Timepoints" in the diagram. […] The treated groups are compared to an untreated control group. The treatment dosage was 4 mg hexaflumuron per kg fish per day for 5 days. This is indicated by "Groups/Timepoints" in the figure. Cage 2 = controls, Cage 4-6 = treated groups, 16.6.97 = time point for sea transfer and 5.8.97= controls treated by bathing with deltamethrin; • Figure 4 relates to the trial described in Example 5, which was carried out on sea trout (Salmo trutta). […] The treated groups are compared with an untreated control group. The dosage for oral treatment was 4 mg hexaflumuron per kilo fish per day for 5 days, and 5 ppm hexaflumuron as a 30 minute bath treatment. This is indicated by "Groups/Timepoints" in the figure. Cage 1.4 = Controls, cage 1.3 = Oral treatment, cage 1.2 = Bath treatment. […] The treated groups are compared with an untreated control group, and one group that has been treated orally with teflubenzuron (10 mg/kg of teflubenzuron per kg fish per day for 7 days). The dosage for oral treatment was 5.6 mg hexaflumuron per kg fish per day for 7 days, and 5 ppm hexaflumuron as a 30 minute bath treatment. […] End of treatment: 22.10.97, Sea transfer: 23.10.97. T1 = 3 weeks post end of treatment, T2 = 5 weeks post end of treatment, T3 = 9 weeks post end of treatment, T4 = 12 weeks post end of treatment; • Figure 6 relates to the trial in Example 6 at time points 4-6, with the same trial parameters as for Figure 5. […]
About 300 sea trout (Salmo trutta) of an average weight of 160 grams were divided into three groups of 100 fish each. […] Lice from 6-10 fish from each cage were counted every third week to assess whether there was any difference in the number of lice between the cages. […]

The subject of another data set is Anilocra physodes. Put plainly: Oral hexaflumuron against infestation with a parasitic isopod (Example 9). The data set is classed as in vivo, Sea bass (Dicentrarchus labrax). Here is the method:
In this trial, hexaflumuron was administered orally in order to test the effect against infestations with the parasitic isopod Anilocra physodes in Sea bass (Dicentrarchus labrax).
150,000 Sea bass (Dicentrarchus labrax) having an average weight of 2 grams were transferred from a hatchery facility and distributed into 5 cages each containing 30,000 fish. The trial was carried out in a food fish facility in the Mediterranean where the sea water temperature varied in the range of 15.0-25.0°C throughout the trial period.
Fish in four cages were fed medicated feed at an amount corresponding to 0.5% of the total biomass per day for 6 days, corresponding to 10 mg hexaflumuron/kg fish per day. One week after the medication and subsequently every three weeks the number of parasites on the fish was monitored.

The nature of data set [1]: Chemical analysis of muscle/skin tissue after oral treatment (Example 6). Particulars: atlantic salmon, 5.6 mg/kg, five fish, read-out: average concentration of hexaflumuron in muscle/skin tissue. The data set is classed as in vivo, Atlantic salmon (Salmo salar). Here is the method: Two days after oral treatment had been completed and at timepoint 3 (65 days after completed medication), muscle/skin tissue from five fish in group 1 was chemically analysed to check the concentration of hexaflumuron. The average concentration of hexaflumuron two days after completed medication was 4.4 µg/g tissue. 65 days after, the average concentration level was 1.2 µg/g tissue.

Data set [2] is described as follows: Specific growth rate after sea transfer (Example 4). Type of data set: in vivo, salmon (Salmo salar). Particulars: treated groups, after about 12 weeks; control group 1.79%. Here is the method:
About 2,500 salmon (Salmo salar) of average weight 42 grams were treated orally with a daily dosage of 4 mg hexaflumuron per kilo fish for 5 days. The treatment was carried out in freshwater one week before the fish were transferred to sea water. In the sea water, the fish was distributed into 3 different minicages with 800-850 fish in each. At the same time 1,000 untreated fish (from a different fish farm) weighing on average 50 grams were transferred to sea in a neighbouring cage. After being transferred to sea water, the fish were exposed to natural sea lice infection. The number of lice on 10 fish from each cage were counted every third week to check if there was any difference in the number of lice in the cages. When ending the trial, about 12 weeks after the fish had been transferred to sea, the fish in each cage were weighed to check possible differences in growth (SGR, specific growth rate). The water temperature varied between 10-16°C during the trial. […] From 9 weeks on, there was no difference between the groups. The dosage rate that was used in this trial, i.e. 4 mg of hexaflumuron per kg fish per day, is very low. By increasing the dosage the protection time would probably be extended. […] The SRG was measured after about 12 weeks and it was estimated at 1.79% in the control group, and 1.95 - 2.00% in the treated groups.

With `O=C(NC(=O)c1c(F)cccc1F)Nc1cc(Cl)c(OC(F)(F)C(F)F)c(Cl)c1` [hexaflumuron], the “protection after transfer to sea” value in the data set with sea lice is reported as “at least 8 weeks”. The “number of lice larger than Chalimus II versus control” value in the data set with sea lice (2, 5 and 8 weeks after sea transfer) is recorded as “significantly lower”. Moreover, in the data set with Anilocra physodes (one week after the medication period (10 mg/kg fish per day, 6 days), control 0.1 louse), the “parasites found in the treated groups” value is “no parasites were found”. Further, the “period of effect against Anilocra physodes after medication” value with Anilocra physodes (oral 10 mg/kg fish per day for 6 days) is recorded as “about 3 weeks”. In addition, in the data set on Anilocra physodes (three weeks after the medication period, control 0.4 louse), the “average parasites in the treated groups” value turned out to be 0.15 louse. Moreover, the concentration at 1560 h in data set [1] (65 days after completed oral medication) came out at 1200 ng/g. The concentration at 48 h in data set [1] (two days after completed oral medication (5.6 mg per kg, 7 days)) was determined as 4400 ng/g. In addition, the “SGR (specific growth rate)” value in data set [2] is on record as 1.95 - 2.00%.

Values taken from EP1306084A1, “Compositions for the control of parasitic infestations in fish” (Alpharma AS, priority 1998, dated 1999).
